Measurements: PMC4669708 (Cell Death & Disease, 2015)

Assays:
Assay in all cases: c-ponatinib pulldown LC-MS/MS
Assay type in all cases: binding
MAPKAPK2 = MAPKAPK2 (Homo sapiens, UniProt P49137)
In short: (§1)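 Whole cell lysate (10 mg) was first passed over immobilized c-ponatinib, and bound proteins were eluted. After reduction, alkylation and tryptic digestion, the peptides were analysed by LC-MS/MS. Finally, binding specificity was assigned by a combined P-value, with or without free-compound competition.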

MAP4K2 = biological target: T1, MAP4K2 (Homo sapiens, UniProt Q12851)
T1 sequence (Q12851 1-820): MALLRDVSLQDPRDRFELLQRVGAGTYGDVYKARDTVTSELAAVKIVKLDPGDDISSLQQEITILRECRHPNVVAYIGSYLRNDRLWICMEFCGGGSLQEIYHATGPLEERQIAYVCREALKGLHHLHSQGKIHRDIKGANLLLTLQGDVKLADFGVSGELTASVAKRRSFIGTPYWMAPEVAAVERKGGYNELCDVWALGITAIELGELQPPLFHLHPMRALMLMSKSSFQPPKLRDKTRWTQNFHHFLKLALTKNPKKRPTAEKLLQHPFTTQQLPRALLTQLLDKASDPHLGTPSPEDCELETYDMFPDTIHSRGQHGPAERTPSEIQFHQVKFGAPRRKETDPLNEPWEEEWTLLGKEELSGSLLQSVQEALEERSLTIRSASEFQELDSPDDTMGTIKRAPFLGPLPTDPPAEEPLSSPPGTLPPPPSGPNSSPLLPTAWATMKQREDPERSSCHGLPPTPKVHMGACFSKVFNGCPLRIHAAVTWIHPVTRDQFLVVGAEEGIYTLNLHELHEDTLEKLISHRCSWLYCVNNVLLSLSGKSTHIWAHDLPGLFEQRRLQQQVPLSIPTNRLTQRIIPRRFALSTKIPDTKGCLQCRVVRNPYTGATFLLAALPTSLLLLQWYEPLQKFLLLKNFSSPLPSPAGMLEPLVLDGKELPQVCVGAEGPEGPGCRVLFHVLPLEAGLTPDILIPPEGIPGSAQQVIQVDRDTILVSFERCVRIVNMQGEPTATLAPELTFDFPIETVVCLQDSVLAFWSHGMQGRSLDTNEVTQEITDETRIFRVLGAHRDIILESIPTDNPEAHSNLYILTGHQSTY
In short: as §1

LCK = LCK (Homo sapiens, UniProt P06239)
Chain of LCK (P06239 whole entry): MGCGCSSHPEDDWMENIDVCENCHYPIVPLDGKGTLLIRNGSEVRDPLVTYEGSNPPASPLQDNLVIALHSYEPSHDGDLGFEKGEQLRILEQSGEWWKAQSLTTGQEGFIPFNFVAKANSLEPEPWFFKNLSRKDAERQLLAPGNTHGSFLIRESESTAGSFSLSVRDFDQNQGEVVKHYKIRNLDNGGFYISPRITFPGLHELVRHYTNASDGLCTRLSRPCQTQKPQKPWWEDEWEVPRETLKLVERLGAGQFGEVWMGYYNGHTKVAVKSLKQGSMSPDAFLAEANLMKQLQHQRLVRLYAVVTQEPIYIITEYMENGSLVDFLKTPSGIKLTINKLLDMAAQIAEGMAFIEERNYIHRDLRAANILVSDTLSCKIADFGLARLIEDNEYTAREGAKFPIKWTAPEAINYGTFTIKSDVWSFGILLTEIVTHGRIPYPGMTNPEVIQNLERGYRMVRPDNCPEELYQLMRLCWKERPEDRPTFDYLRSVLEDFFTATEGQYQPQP
In short: as §1

Chain of MAPKAPK2 (P49137 whole entry): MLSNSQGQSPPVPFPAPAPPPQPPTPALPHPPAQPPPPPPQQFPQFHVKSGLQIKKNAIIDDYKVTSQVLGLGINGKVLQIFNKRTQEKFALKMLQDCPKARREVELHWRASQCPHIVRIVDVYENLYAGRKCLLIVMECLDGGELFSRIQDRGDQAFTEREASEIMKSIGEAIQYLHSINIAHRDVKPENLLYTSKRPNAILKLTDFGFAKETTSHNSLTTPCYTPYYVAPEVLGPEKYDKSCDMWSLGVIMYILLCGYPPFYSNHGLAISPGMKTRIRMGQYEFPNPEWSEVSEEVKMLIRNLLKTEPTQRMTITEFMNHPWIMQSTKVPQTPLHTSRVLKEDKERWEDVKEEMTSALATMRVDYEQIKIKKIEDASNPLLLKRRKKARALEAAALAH

Cc1ccc(C(=O)Nc2ccc(CN3CCN(CCCN)CC3)c(C(F)(F)F)c2)cc1C#Cc1cnc2cccnn12 [c-ponatinib]
Av. SC comp. (MAPKAPK2; + free ponatinib): 0
Total SC comp. (MAPKAPK2; + free ponatinib): 0
Av. SC (MAPKAPK2; no competitor): 23.5
Total SC (MAPKAPK2; no competitor): 94
Av. SC comp. (MAP4K2; + free ponatinib): 0
Total SC comp. (MAP4K2; + free ponatinib): 0
Av. SC (MAP4K2; no competitor): 2.5
Total SC (MAP4K2; no competitor): 10
Av. SC comp. (LCK; + free ponatinib): 0.75
Total SC comp. (LCK; + free ponatinib): 3
Av. SC (LCK; no competitor): 98.5
Total SC (LCK; no competitor): 394
